Laboratory results reported in paper PMC4993559 (Journal of Experimental Pharmacology, 2016).
Where two headings read alike, the source gives them in different places.

Key:
[1] = target: T1, CSF1R (c-fms) (Homo sapiens, UniProt P07333); conditions: read-out: IC50 (class); Momelotinib scale; cited from earlier work
[2] = target: T2, HIPK4 (Homo sapiens, UniProt Q8NE63); conditions: read-out: IC50 (class); Momelotinib scale; cited from earlier work
T2 sequence (Q8NE63 1-616): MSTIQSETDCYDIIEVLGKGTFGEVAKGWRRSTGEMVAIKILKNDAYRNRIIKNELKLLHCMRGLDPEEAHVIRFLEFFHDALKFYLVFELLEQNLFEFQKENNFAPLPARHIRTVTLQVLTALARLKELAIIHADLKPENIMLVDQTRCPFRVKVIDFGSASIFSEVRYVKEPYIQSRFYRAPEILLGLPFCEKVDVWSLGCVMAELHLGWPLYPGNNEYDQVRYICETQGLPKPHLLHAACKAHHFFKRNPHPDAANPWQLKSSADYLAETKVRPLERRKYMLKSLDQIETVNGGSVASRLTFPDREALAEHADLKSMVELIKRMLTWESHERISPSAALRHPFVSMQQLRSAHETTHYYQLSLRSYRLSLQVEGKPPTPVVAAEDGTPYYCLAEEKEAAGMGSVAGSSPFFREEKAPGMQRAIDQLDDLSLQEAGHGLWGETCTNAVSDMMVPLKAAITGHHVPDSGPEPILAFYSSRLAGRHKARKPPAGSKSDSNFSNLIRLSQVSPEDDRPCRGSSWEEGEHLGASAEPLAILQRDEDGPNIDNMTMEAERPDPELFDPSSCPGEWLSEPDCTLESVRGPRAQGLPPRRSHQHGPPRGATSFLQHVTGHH

[3] = target: T3, c-src (Homo sapiens, UniProt P12931); conditions: read-out: IC50 (class); Momelotinib scale; cited from earlier work
T3 sequence (P12931 whole entry): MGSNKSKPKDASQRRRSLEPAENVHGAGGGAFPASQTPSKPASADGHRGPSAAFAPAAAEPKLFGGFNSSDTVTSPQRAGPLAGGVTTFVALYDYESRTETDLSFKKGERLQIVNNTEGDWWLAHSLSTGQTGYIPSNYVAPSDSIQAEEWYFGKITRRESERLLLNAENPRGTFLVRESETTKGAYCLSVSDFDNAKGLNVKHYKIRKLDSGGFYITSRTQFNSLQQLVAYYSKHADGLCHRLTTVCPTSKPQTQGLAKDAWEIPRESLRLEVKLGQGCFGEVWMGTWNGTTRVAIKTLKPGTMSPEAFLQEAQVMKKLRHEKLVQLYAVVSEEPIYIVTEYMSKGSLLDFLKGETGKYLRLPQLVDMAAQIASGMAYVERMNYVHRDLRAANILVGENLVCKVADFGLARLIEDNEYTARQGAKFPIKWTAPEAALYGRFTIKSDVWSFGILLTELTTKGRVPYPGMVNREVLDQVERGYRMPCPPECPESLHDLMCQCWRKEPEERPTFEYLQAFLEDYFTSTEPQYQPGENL

[4] = target: T4, ROS1 (Homo sapiens, UniProt P08922); conditions: read-out: IC50 (class); Momelotinib scale; cited from earlier work
T4 sequence (P08922 28-2347): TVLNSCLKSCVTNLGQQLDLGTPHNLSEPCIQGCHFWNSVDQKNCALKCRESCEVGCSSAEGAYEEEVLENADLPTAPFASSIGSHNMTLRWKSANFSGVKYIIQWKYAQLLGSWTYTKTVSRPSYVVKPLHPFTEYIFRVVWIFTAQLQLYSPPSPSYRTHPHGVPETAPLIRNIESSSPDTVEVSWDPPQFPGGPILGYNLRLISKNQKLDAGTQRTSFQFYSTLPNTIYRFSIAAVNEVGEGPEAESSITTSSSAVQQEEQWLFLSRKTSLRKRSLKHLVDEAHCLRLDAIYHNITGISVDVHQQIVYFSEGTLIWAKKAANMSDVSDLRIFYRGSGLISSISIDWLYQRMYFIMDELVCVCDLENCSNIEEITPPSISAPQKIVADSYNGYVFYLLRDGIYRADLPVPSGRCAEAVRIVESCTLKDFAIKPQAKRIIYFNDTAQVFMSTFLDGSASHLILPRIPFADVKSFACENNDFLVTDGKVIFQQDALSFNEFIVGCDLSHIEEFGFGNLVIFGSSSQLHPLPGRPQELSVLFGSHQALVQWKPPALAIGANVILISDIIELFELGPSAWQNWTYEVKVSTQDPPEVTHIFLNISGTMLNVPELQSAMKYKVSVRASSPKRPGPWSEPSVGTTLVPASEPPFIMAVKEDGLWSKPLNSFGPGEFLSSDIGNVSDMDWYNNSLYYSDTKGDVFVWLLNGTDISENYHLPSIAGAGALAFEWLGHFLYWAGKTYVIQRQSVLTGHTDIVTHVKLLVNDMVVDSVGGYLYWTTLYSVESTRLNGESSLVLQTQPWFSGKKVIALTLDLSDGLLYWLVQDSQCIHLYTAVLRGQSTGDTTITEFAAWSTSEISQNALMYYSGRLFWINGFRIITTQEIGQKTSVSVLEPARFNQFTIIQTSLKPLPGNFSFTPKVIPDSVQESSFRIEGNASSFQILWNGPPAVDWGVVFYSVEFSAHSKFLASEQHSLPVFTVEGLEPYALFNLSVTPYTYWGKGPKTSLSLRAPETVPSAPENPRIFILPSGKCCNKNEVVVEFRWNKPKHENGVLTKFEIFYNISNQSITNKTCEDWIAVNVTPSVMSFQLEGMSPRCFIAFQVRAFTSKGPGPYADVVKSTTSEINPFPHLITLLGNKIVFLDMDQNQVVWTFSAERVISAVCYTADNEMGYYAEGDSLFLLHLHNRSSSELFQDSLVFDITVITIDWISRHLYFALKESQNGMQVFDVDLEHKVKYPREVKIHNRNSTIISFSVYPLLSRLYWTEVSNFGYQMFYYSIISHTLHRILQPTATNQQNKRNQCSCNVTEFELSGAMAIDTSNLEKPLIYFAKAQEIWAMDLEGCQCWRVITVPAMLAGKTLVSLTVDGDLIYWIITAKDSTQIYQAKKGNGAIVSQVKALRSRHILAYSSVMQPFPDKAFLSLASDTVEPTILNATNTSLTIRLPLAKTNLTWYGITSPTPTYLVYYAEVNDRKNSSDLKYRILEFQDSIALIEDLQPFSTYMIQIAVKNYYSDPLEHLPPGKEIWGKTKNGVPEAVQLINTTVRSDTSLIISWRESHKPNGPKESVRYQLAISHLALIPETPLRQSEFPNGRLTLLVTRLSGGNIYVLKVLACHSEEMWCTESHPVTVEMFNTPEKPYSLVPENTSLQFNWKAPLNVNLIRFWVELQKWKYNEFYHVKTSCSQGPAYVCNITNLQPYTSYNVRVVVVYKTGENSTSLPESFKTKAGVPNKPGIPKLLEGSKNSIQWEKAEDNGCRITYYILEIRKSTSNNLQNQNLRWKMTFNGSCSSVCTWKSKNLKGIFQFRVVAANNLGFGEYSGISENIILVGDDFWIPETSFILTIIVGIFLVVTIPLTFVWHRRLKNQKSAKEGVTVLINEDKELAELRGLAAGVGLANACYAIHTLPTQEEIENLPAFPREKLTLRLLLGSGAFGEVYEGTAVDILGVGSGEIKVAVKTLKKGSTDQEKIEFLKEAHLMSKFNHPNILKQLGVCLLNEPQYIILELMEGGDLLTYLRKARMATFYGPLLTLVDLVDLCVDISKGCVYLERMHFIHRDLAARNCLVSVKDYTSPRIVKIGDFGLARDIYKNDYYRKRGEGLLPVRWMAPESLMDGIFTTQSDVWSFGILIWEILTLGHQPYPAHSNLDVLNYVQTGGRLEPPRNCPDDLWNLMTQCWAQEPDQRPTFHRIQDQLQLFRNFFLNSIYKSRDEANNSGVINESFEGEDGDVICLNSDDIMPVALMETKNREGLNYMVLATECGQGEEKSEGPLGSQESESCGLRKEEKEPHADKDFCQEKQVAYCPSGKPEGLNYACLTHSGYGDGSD

[5] = target: TYK2 (Homo sapiens, UniProt P29597); experiment: HotSpot radioisotope filter-binding kinase assay; format: biochemical
[6] = tested on: phosphorylated IRAK1; conditions: AML cells; cited from earlier work
[7] = target: T2, HIPK4; experiment: HotSpot radioisotope filter-binding kinase assay; format: biochemical
[8] = target: TRKC (Homo sapiens, UniProt Q16288); experiment: HotSpot radioisotope filter-binding kinase assay; format: biochemical
[9] = tested on: AML cell lines; conditions: AML cell lines harboring various mutations; cited from earlier work
[10] = tested on: primary CMML cells; conditions: cited from earlier work
[11] = target: T1, CSF1R (c-fms); experiment: HotSpot radioisotope filter-binding kinase assay; format: biochemical
[12] = target: T4, ROS1; experiment: HotSpot radioisotope filter-binding kinase assay; format: biochemical
[13] = target: T5, TNK1 (Homo sapiens, UniProt Q13470); experiment: HotSpot radioisotope filter-binding kinase assay; format: biochemical
T5 sequence (Q13470 1-666): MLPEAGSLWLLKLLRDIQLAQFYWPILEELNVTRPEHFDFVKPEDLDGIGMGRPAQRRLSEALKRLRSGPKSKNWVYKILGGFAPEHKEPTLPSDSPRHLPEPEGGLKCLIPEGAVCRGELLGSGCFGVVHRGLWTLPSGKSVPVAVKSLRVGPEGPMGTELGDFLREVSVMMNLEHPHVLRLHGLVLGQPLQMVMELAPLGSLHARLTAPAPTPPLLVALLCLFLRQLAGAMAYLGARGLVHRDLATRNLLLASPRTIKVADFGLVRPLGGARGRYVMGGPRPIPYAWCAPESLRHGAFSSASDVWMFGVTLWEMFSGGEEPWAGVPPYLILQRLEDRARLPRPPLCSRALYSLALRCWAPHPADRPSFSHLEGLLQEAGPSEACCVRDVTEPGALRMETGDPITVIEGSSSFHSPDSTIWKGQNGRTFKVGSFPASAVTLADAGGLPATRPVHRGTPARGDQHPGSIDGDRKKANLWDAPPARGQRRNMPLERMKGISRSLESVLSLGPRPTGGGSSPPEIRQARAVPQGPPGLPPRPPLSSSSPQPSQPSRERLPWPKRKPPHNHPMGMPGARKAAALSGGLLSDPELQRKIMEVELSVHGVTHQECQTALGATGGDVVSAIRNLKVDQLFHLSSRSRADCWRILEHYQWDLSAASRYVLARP

[14] = target: c-kit (Homo sapiens, UniProt P10721); experiment: HotSpot radioisotope filter-binding kinase assay; format: biochemical
[15] = target: JAK1 (Homo sapiens, UniProt P23458); experiment: HotSpot radioisotope filter-binding kinase assay; format: biochemical
Chain of JAK1 (P23458 whole entry): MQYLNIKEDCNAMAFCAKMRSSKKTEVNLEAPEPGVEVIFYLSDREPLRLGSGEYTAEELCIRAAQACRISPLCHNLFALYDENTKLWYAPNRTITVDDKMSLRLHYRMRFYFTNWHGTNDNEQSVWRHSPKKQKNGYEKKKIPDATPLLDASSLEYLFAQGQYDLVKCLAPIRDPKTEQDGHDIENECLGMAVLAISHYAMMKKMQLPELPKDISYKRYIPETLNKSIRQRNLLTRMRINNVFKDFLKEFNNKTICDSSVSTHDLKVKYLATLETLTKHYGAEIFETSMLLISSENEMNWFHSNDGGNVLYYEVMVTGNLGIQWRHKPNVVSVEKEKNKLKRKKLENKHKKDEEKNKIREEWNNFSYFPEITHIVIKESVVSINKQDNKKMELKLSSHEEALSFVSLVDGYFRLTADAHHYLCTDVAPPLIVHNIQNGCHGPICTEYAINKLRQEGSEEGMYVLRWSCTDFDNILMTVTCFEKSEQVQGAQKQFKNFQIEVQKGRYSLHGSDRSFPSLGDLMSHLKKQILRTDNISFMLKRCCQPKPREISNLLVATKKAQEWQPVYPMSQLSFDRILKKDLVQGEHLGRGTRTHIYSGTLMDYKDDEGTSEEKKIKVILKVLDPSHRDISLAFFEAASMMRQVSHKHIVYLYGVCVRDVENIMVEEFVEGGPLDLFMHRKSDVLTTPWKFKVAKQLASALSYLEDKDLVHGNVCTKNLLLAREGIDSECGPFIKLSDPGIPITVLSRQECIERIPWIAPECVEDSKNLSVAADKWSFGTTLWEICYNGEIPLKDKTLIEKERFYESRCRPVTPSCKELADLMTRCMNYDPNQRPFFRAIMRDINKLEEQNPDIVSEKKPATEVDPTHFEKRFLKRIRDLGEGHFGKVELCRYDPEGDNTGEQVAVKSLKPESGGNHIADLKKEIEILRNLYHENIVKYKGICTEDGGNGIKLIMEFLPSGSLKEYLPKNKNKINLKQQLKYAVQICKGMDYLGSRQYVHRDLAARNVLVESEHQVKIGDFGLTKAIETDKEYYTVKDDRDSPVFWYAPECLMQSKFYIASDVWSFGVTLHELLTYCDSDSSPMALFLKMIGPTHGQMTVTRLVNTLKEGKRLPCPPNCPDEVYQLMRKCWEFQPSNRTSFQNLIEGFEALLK

[16] = target: IRAK1 (Homo sapiens, UniProt P51617); experiment: HotSpot radioisotope filter-binding kinase assay; format: biochemical
[17] = target: T3, c-src; experiment: HotSpot radioisotope filter-binding kinase assay; format: biochemical
[18] = Steady-state peak plasma concentration after 400 mg daily; format: in vivo; conditions: humans, calculated/simulated
[19] = IC50, recombinant kinase, 10 μM ATP

T1 sequence (P07333 20-972): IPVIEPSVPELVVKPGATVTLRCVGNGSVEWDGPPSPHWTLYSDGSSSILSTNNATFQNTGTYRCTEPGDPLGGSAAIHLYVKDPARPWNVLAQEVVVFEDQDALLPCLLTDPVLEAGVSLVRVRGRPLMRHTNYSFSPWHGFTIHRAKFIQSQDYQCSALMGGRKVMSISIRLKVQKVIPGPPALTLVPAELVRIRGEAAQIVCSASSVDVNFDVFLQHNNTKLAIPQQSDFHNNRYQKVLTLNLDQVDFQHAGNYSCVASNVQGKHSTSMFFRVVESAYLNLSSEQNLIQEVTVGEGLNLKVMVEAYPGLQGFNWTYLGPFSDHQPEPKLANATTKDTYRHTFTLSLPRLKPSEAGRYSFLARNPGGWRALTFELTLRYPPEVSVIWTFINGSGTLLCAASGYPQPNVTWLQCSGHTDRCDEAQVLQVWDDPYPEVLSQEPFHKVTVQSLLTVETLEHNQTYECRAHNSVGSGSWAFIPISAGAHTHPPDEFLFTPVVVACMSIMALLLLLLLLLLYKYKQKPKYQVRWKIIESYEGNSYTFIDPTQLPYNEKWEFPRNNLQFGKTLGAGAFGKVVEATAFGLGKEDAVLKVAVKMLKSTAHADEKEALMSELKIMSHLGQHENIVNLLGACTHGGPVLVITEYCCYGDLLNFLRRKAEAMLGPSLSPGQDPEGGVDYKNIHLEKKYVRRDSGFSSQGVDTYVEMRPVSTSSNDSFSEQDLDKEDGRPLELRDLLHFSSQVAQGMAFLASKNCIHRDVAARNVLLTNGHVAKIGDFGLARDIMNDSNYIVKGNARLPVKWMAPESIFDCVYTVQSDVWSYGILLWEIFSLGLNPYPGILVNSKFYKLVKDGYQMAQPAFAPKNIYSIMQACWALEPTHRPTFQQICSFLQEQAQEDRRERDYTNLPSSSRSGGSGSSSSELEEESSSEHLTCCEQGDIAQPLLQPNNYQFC

Structure (SMILES): N#CCNC(=O)c1ccc(-c2ccnc(Nc3ccc(N4CCOCC4)cc3)n2)cc1 [Momelotinib]
- IC50 [1]: < 1000 nM
- IC50 [2]: < 1000 nM
- IC50 [3]: > 1000 nM
- IC50 [4]: < 1000 nM

Structure (SMILES): C1=C/COCc2cc(ccc2OCCN2CCCC2)Nc2nccc(n2)-c2cccc(c2)COC/1 [Pacritinib, 11-(2-pyrrolidin-1-yl-ethoxy)-14,19-dioxa-5,7,26-triaza-tetracyclo[19.3.1.1(2,6). 1(8,12)]heptacosa-1(25),2(26),3,5,8,10,12(27),16,21,23-decaene]
- IC50 ([5]; IC50 (class), Pacritinib scale): 25 to 50 nM
- IC50 [5, 19]: 27 nM
- phosphorylation of IRAK1 [6]: inhibits the phosphorylation of IRAK1
- IC50 ([7]; IC50 (class), Pacritinib scale): < 25 nM
- IC50 [7, 19]: 14.5 nM
- IC50 ([8]; IC50 (class), Pacritinib scale): < 25 nM
- IC50 [8, 19]: 18.4 nM
- viability and survival [9]: reduces both the viability and survival
- activity combined with 5-azacitidine [10]: synergistic activity
- IC50 ([11]; IC50 (class), Pacritinib scale): 25 to 50 nM
- IC50 [11, 19]: < 50 nM
- IC50 ([12]; IC50 (class), Pacritinib scale): < 25 nM
- IC50 [12, 19]: 18.4 nM
- IC50 ([13]; IC50 (class), Pacritinib scale): < 25 nM
- IC50 [13, 19]: 15 nM
- IC50 ([14]; IC50 (class), Pacritinib scale): 25 to 50 nM
- IC50 [14, 19]: 43.8 nM
- IC50 [15]: > 100 nM
- remaining activity at 0.1 µM ([15]; read-out: kinase activity remaining (% control)): 82%
- IC50 ([15]; recombinant kinase, 10 μM ATP): Indeterminate
- IC50 ([16]; IC50 (class), Pacritinib scale): < 25 nM
- IC50 [16, 19]: 13.6 nM
- IC50 ([17]; IC50 (class), Pacritinib scale): 25 to 50 nM
- IC50 [17, 19]: 46.7 nM
- total steady-state levels [18]: 5 to 7 µM
- mean peak plasma concentration of free drug at steady state ([18]; oral): approximately 200 nM
